Assays:
[1] = test system: E. coli ATCC8739 (lab strain 223); test: Minimum Inhibitory Concentration (MIC); assay type: cell-based
Protocol: (§1) An overnight culture of E. coli ATCC8739 (lab strain 223) and/or S. Aureus ATCC 14154 (lab strain 502) grown on trypticase soy agar plates was resuspended in Mueller-Hinton Broth to a cell density of 0.6-1.2×10^6 colony forming units per milliliter. Chlorhexidine samples were prepared by adjusting CHG to 512 μg/ml in Mueller-Hinton Broth and serially diluting in two-fold steps in Mueller-Hinton Broth. The CHG-containing Mueller-Hinton Broth was placed in 96-well sterile microliter plates and each well was inoculated with the bacteria. The plates were then incubated for 24-48 hrs at 37° C. Bacterial growth was determined visually by comparing the plates.

[2] = test system: S. Aureus ATCC 14154 (lab strain 502); test: Minimum Inhibitory Concentration (MIC); assay type: cell-based
Protocol: as §1

[3] = Example 9, lowest concentration of CHG giving complete kill, 24-48 hrs at 37° C.
[4] = Example 24, CHG at 0.5% by weight where present

N=C(NCCCCCCNC(=N)NC(=N)Nc1ccc(Cl)cc1)NC(=N)Nc1ccc(Cl)cc1.O=C(O)[C@H](O)[C@@H](O)[C@H](O)[C@H](O)CO.O=C(O)[C@H](O)[C@@H](O)[C@H](O)[C@H](O)CO [0.5% CHG std., chlorhexidine gluconate]
4 µg/mL: MIC (μg/ml) E. coli [1, 3] | E. coli 223 MIC [1, 4] | MIC (μg/ml) S. aureus [2, 3] | S aureus 502 MIC [2, 4]

Reference: US6610315B2, “Topical application of stable hydroalcoholic compositions for maintaining or improving skin conditions, and delivering fragrance to skin” (3M Innovative Properties Company, priority 1995, dated 2003)
